# Source: patent publication US20100209407A1, “MC-1R, MC-2R, AND/OR MU OPIOID RECEPTORS MODULATION” (BASF BEAUTY CARE SOLUTIONS FRANCE S.A.S., priority 2007, published 2010)
# Tests used:
# Assay type in all cases: cell-based, human
# MC-1R [1] = test: MC-1R mRNA expression by quantitative RT-PCR in keratinocytes put in contact with actives; details: mRNA relative to actin, multiple of untreated control, 24 hours, 1% plant extracts and biotechnological hydrolysates, 0.01% characterized molecules
# From the text: (§1) In particular, the extracts are obtained by macerating plants (preferably roots, rhizomes, stems, bark, flowers, fruits, seeds, germs, or leaves) at 1-10% (p/p), usually 1-5% in a solvent or a mixture of solvents, usually a mixture of water and alcohol, glycol, or polyol (such as ethanol, glycerol, butylene glycol and other glycols, xylitol, etc.) 100/0 to 0/100, and preferably in water. The extracts obtained are then filtered or distilled in order to recover the soluble portion, which is then filtered, preferably at 0.45 μm. Biotechnological hydrolysates are obtained via the fermentation of plant extracts in the presence of microorganisms usually from the family of lactic bacteria, in particular bactobacillus plantarum, or paracasei, and bifidobacterium, in particular longum or Saccharomyces. These hydrolysates are then filtered, preferably to 0.45 μm, in order to obtain the active components. […]
# (§2) The parameters of amplification have usually been the following: The technique of RT-PCR in real time is conducted with the “Quanti Ted SYBR Green RT-PCR” kit (Qiagen, France) on wells containing mRNA, in an OPTICON thermocycler, which carries out cycles of amplification. […] At the end of each cycle, fluorescence, which is proportional to the number of fragments amplified, is read. […]
# MC-2R [2] = test: MC-2R mRNA expression by quantitative RT-PCR in keratinocytes put in contact with actives; details: mRNA relative to actin, multiple of untreated control, 24 hours, 1% plant extracts and biotechnological hydrolysates, 0.01% characterized molecules
# From the text: as §1, §2
# μ opioid R [3] = test: μ opioid R mRNA expression by quantitative RT-PCR in keratinocytes put in contact with actives; details: mRNA relative to actin, multiple of untreated control, 24 hours, 1% plant extracts and biotechnological hydrolysates, 0.01% characterized molecules
# From the text: as §1, §2
# POMC [4] = test: POMC mRNA expression by quantitative RT-PCR in keratinocytes put in contact with actives; details: mRNA relative to actin, multiple of untreated control, 24 hours, 1% plant extracts and biotechnological hydrolysates, 0.01% characterized molecules
# From the text: as §1, §2
# MC-2R [5] = test: Detection of MC-2R protein in keratinocytes after action of active components (electrophoresis, immunodetection, image analysis); details: semi-quantification via image analysis, multiple of control
# Protocol: (§3) The cells were cultivated at 37° C. in an atmosphere of 5% CO2 in the K-SFM environment K-SFM (Invitrogen) containing BPF (25 mg), EGF (2.5 μg), and normocin.
# (§4) The cells were washed once with PBS solution, and the proteins were extracted at 30 min at 4° C. in lysis solution (Tris 50 mM, NaCl 250 mM, pH 7.5, 1% triton), in the presence of protease inhibitors. The lysates were centrifuged for 15 minutes at 13,000 g. The floaters are diluted with Laemmli solution in the presence of beta mercaptoethanol before electrophoresis.
# (§5) For immunodetection, the proteins are separated via electrophoresis in 4-12% SDS-polyacrylamide gel. The proteins were transferred onto a nitrocellulose membrane (Biorad). The membranes are then saturated for one hour at ambient temperature in TBS solution with 3% BSA. The proteins are finally immunodetected after incubation of the primary antibody at 4° C. all night, followed by the secondary antibody coupled with Alexa 488 (invitrogen), 1 hour at ambient temperature.
# (§6) The antibodies were used in the following dilution: 5 μg/mL anti-MC-1R, 5 μg/mL anti-MC-2R, and 1/1000 anti-μ opioid R.
# (§7) Semi-quantification was carried out via image analysis. The actives are the following and are the subject of table IV.
# μ opioid receptor = test: Detection of μ opioid receptor protein in keratinocytes after action of active components (electrophoresis, immunodetection, image analysis); details: semi-quantification via image analysis, multiple of control
# Protocol: as §3, §4, §5, §6, §7
# MC-1R [6] = test: MC-1R mRNA expression by quantitative RT-PCR in melanocytes put in contact with actives; details: mRNA relative to actin, multiple of untreated control, 24 hours, same conditions as Example 3
# μ opioid R [7] = test: μ opioid R mRNA expression by quantitative RT-PCR in melanocytes put in contact with actives; details: mRNA relative to actin, multiple of untreated control, 24 hours, same conditions as Example 3
# POMC [8] = test: POMC mRNA expression by quantitative RT-PCR in melanocytes put in contact with actives; details: mRNA relative to actin, multiple of untreated control, 24 hours, same conditions as Example 3
# Protocol: The active components are tested for keratinocytes after dissolution in the culturing environment: usually between 0.1% and 2% (v/v) for plants and biotechnological hydrolysates and in particular from 0.5% to 1% and usually between 0.001% and 0.01% for characterized molecules. The present results are obtained with 1% in the culturing environment for plant extracts and biotechnological hydrolysates, and with 0.01% for characterized molecules.
# After the contact time of the actives with the cells, for example 24 hours, the environments are eliminated and the cells conserved, for example by freeze-drying at −80° C. after a rinsing with 7.4 pH phosphate solution. The total RNA is extracted, for example, using a 96-well extraction kit on silica columns and divided onto a 96-well spectrophotometer at 260 nm (purity indicator: dosage of proteins at 280 nm). The RNA is diluted, for example at 5 ng/μl. […]
# as §2
Compound,MC-1R Control X: (MC-1R [1]) [Control X],MC-2R Control X: (MC-2R [2]) [Control X],μ opioid R Control X: (μ opioid R [3]) [Control X],POMC Control X: (POMC [4]) [Control X],MC-2R Control X: (MC-2R [5]) [Control X],μ opioid R Control X: (μ opioid receptor) [Control X],MC-1R Control X: (MC-1R [6]) [Control X],μ opioid R Control X: (μ opioid R [7]) [Control X],POMC Control X: (POMC [8]) [Control X]
"CC1=CC(=O)C2=C(C)CC(OC(=O)Cc3ccccc3)C3C(C)C(=O)OC3C12 (stereo not drawn) [Phenyl-acetic acid 3,6,9-trimethyl-2,7-dioxo-2,3,3a,4,5,7,9a,9b-octahydro-azuleno[4,5-b]furan-4-yl]",20.0,20.0,1.0,1,1.96,1.66,–,–,–
"C/C=C(/C)C(=O)OC1CC2(C)CCC(C(C)C)C2(O)CCC1(C)O (stereo not drawn) [(Z)-decahydro-6,8a-dihydroxy-1-isopropyl-3a,6-dimethylazulen-5-yl 2-methylbut-2-enoate]",1.0,18.5,1.0,1,1.99,1.37,–,–,–
Cc1nc(C(=O)O)cc2c1[nH]c1ccccc12 [1 methyl beta carbolin-3-carboxylic acid],–,–,–,–,–,–,1.0,1.0,3.3
